# Measurements taken from patent publication US9765158B2, “Methods for preparation of fucose-linked site specific conjugates of proteins with toxins, adjuvants, detection labels and pharmacokinetic half life extenders” (Probiogen AG, priority 2011, dated 2017).
# Columns and labels:
# [1] = test system: Antibody expressing CHO cells carrying the RMD transgene; experiment: Fucose feeding experiment: rescue of core-fucosylation of secreted antibody, PSA lectin blotting; type: cell-based, Chinese hamster; conditions: media and feeds supplemented with 0.03 mM; cells grown 12 days; supernatant lectin blot (FIG. 4)
# Procedure: Currently, Fucose analogs are not routinely used in cell culture and are thus still expensive. In order to identify the most cost efficient fucose analogue concentration, we needed to determine the minimum required amount of fucose analogue that was sufficient to completely rescue the fucosylation status of heterologously expressed antibodies secreted from RMD-co-expressing cells. Antibody expressing CHO cells carrying the RMD transgene were cultured in medium containing varying concentrations of fucose and fed with a feed mix supplemented with that same amount of fucose. Cells were grown for 12 days before harvesting the cell culture supernatant. The supernatants were analysed by lectin blotting using biotinylated PSA lectin (pisum sativum) that specifically recognizes the alpha-1,6-linked core-fucose. Lectin blotting was conducted using the Vecstatin Elite ABC Kit (Vector Labs, USA) according to the manufacturers instructions.
# [2] = molecular target: avidin (Gallus gallus, UniProt P02701); conditions: avidin-biotin complex; cited from earlier work
# avidin, sequence (P02701 25-152, species assumed): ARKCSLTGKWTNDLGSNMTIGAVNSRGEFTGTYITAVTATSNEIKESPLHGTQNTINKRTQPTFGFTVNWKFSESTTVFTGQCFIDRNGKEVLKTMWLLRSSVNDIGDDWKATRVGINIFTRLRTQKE
Compound,rescue of core-fucosylation [1],Ka [2]
C[C@H](O)[C@@H](O)[C@@H](O)[C@H](O)C=O [Fucose],almost complete rescue,
O=C(O)CCCC[C@@H]1SC[C@@H]2NC(=O)N[C@@H]21 [biotin],,1015 M⁻¹
